Laboratory results taken from patent publication US9598396B2, “Tetrahydrophenanthridinones and tetrahydrocyclopentaquinolinones as PARP and tubulin polymerization inhibitors” (Janssen Pharmaceutica NV, priority 2008, dated 2017).

Legend:
tubulin = test: Tubulin polymerization assay; assay type: biochemical; settings: inhibition of polymerization at 20 μM and 5 μM
Protocol: Example C.5 Polymerization Assay
The tubulin polymerization assay is an adaptation of an assay originally described by Bonne, D. et al. (J. Biol. Chem., 1985, 260:2819-25). The assay kit was purchased from Cytoskeleton, Inc. (catalogue number BK011) and the assay was performed as described by the supplier with the following modifications. The assay was run in a 384-well black Proxiplate (Perkin Elmer) and volumes were adapted accordingly. The reactions were carried out in a final volume of 10 μl. Compounds were added to 25 μl of the reaction mix in 96-well PP plates (Corning) on ice and 10 μl of this mixture was dispensed into duplicates of the 384-well Proxiplates pre-warmed to 37° C. in a Fluoroskan Ascent plate reader (Thermo Scientific). Fluorescence measurements were taken every minute for one hour. The maximum slope of each well was determined (linear regression through 4 consecutive points) and polymerization was calculated as a percentage of polymerization observed in the absence of compound.

[1] = system: human prostate cancer PC3 cells; test: Eb1 Comet (microtubule disruption) assay; assay type: cell-based; settings: 1 hour treatment, LAC = concentration where Eb1 foci absent in at least 50% of treated cells
Source text: Example C.6 Eb1 Comet (Microtubule Disruption) Assay
The Eb1 Comet assay relies on the detection of the Eb1 protein at the plus end of polymerizing microtubules (Mimori-Kiyosue, 2000) using indirect immunofluorescence. Disruption of microtubule dynamics through de-polymerization or stabilization results in a de-localization of Eb1 from the growing microtubule ends and this is visualized by the disappearance of Eb1 containing cytoplasmic foci.
Briefly, human prostate cancer PC3 cells obtained from the American Type Culture Collection were grown in 96-well plates (Greiner, cat. no. 655090) in HAM's F12 medium as recommended by the provider (ATCC). The cells were treated for 1 hour at 37° C. with compounds dissolved in DMSO (0.6% final DMSO concentration). The culture medium was then removed by aspiration and the cells were fixed by adding cold methanol (−20 C). After a 15 minutes incubation at −20° C., the cells were washed twice with DPBS (Gibco) containing 0.5% Triton X-100. Mouse Eb1 antibody (BD Transduction Laboratories, cat. no. 610534) was added to the cells (1/250 dilution in DPBS containing 1% BSA) and incubated overnight at room temperature. The antibody was subsequently removed and the cells washed twice with DPBS, 0.5% Triton X-100. Secondary goat anti-mouse antibody conjugated to Alexa 488 fluorescent dye (Molecular Probes) was added at a 1/500 dilution in DPBS, 1% BSA and incubated for 1 hour at 37° C. The cells were washed twice with DPBS, 0.5% Triton X-100 and then DPBS containing 0.5% Triton X-100 and 1/5000 Hoechst 33342 (Molecular Probes) was added. Microscopy based Eb1 foci visualization was carried out using an IN Cell Analyser 1000 (Amersham Biosciences) using a 20× objective. Compound dependent microtubule disruption was visually determined by the disappearance in Eb1 foci. The lowest active concentration (LAC) was determined as the concentration where Eb1 foci were absent in at least 50% of the treated cells. Herein the effects of tested compounds are expressed as pLAC (the negative log value of the LAC value) (see Table 3).

TANK-2 enzyme = TANK-2 enzyme (Homo sapiens (Human), UniProt Q9H2K2); test: In vitro Scintillation Proximity Assay (SPA) for TANK-2 inhibitory activity; assay type: biochemical; settings: auto-poly(ADP-ribosyl)ation, [3H]-NAD+, Ni flash plates (96 or 384 well)
Protocol: C.2.In Vitro Scintillation Proximity Assay (SPA) for TANK-2 Inhibitory Activity
Compounds of the present invention were tested in an in vitro assay based on SPA technology with Ni Flash plates (96 or 384 well).
In principle, the assay relies upon SPA technology for the detection of auto-poly(ADP-ribosyl)ation of TANK-2 protein using [^3H]-nicotinamide adenine dinucleotide ([^3H]-NAD^+) as ADP-ribosyl donor.
A stock solution of 100 nM [^3H]-NAD^+/NAD (0.1 mCi/ml, supplier: Perkin Elmer) and 25 μM NAD (Sigma) was made in assay buffer (60 mM Tris/HCl, pH 7.4; 0.9 mM DTT; 6 mM MgCl2). The TANK-2 enzyme was produced as described in EP1238063. 60 μl of assay buffer, together with 1 μl of compound in DMSO, 20 μl of [^3H]-NAD^+/NAD and 20 μl of TANK-2 enzyme (final concentration 8 μg/ml) was added per well into a 96-well Ni-coated flash plate (Perkin Elmer). After incubation of the mixture for 120 minutes at room temperature, the reaction was terminated by adding 60 μl of stopsolution (42.6 mg NAD in 6 ml H2O). The plates were covered with a plate sealer and placed in a TopCountNXT™ (Packard) for scintillation counting. Values were expressed as counts per minute (cpm). For each experiment, controls (containing TANK-2 enzyme and DMSO without compound), a blank incubation (containing DMSO but no TANK-2 enzyme or compound) and samples (containing TANK-2 enzyme and compound dissolved in DMSO) were run in parallel. All compounds tested were dissolved and eventually further diluted in DMSO. In first instance, compounds were tested at a concentration of 10^−5M. […] In each test, the blank value was subtracted from both the control and the sample values. The control sample represented maximal TANK-2 enzyme activity. For each sample, the amount of cpm was expressed as a percentage of the mean cpm value of the controls. […] Herein the effects of test compounds are expressed as pIC50 (the negative log value of the IC50-value). As reference compounds, 3-aminobenzamide and 4-amino-1,8-naphtalimide were included to validate the SPA assay. Herein the assay was described using 96-well plates. In the assay using 384-well plates the same final concentrations were used and volumes were adapted.

[2] = system: Human colon carcinoma HCT116 cells; test: Detection of antiproliferative activity (Alamar Blue assay); assay type: cell-based; settings: HCT-116, 96 h, 4-day incubation, read-out: Cellular assay HCT116 pIC50 (converted)
Protocol: Example C.4 Detection of Antiproliferative Activity
Human colon carcinoma HCT116 cells obtained from the ATCC were cultured in McCoy's 5A medium supplemented with 2 mM L-Glutamine, 50 μg/ml gentamicin and 10% heat inactivated fetal calf serum.
Reagents used in the Alamar Blue Assay
Resazurin was purchased from Aldrich (Prod. No. 199303). Potassium ferrocyanide, potassium ferricyanide, KH2PO4 and K2HPO4 were purchased from Sigma (Prod. Nos. P9387, P8131, P5655 and P8281, respectively).
Potassium Phosphate Buffer 0.1 M (PPB) was made as follows: 2.72 gram KH2PO4 and 13.86 gram K2HPO4 were dissolved in 500 ml milli-Q H2O, the pH was adjusted to pH 7.4 and the volume was brought to 1 liter with milli-Q H2O; the buffer was filter sterilised and stored at room temperature. Resazurin stock solution (PPB-A) was prepared fresh by dissolving 45 mg resazurin in 15 ml PBS. 30 mM potassium ferricyanide (PPB-B) was prepared by dissolving 0.987 gram potassium ferricyanide in 100 ml PPB. 30 mM potassium ferrocyanide (PPB-C) was prepared by dissolving 1.266 gram potassium ferrocyanide in 100 ml PPB.
Mixture of PPB-A, PPB-B and PPB-C was prepared by mixing equal volumes of the respective solutions. Resazurin work solution (herein termed “Alamar Blue” solution) was prepared by diluting said mixture 20× (vol/vol) in PPB and filter sterilising; the Alamar Blue solution could be kept at 4° C. for a maximum of 2 weeks.
Procedure of the Alamar Blue Assay
For experiments in 384 wells plates the cells were seeded at a density of 4.5×10^3 cells/ml in Falcon 384-well culture plates (Life Technologies, Merelbeke, Belgium), black with clear bottom, in 45 μl culture medium. Cells were allowed to adhere to plastic for 24 hours. The tested compound was pre-diluted (1/50 in culture medium) and 5 μl pre-diluted compound was added to the wells. Following 4-day incubation, 10 μl of the Alamar Blue solution was added to each well and the cells were further incubated for 4 hours (HCT116) or 24 hours (PC-3) at 37° C. The fluorescence intensity was measured for each well on a Fluorescence plate reader (Fluorskan, Labsystems, 540 nm excitation and 590 nm emission)
The antiproliferative activity was calculated as percentage of remaining viable cells in treated versus control (untreated cells) conditions. Within an experiment, the result for each experimental condition is the mean of 3 replicate wells. When appropriate, the experiments were repeated to establish full concentration-response curves. […] Herein the effects of tested compounds are expressed as pIC50 (the negative log value of the IC50 value) (see Table 3).

Sequence of TANK-2 enzyme (Q9H2K2 whole entry): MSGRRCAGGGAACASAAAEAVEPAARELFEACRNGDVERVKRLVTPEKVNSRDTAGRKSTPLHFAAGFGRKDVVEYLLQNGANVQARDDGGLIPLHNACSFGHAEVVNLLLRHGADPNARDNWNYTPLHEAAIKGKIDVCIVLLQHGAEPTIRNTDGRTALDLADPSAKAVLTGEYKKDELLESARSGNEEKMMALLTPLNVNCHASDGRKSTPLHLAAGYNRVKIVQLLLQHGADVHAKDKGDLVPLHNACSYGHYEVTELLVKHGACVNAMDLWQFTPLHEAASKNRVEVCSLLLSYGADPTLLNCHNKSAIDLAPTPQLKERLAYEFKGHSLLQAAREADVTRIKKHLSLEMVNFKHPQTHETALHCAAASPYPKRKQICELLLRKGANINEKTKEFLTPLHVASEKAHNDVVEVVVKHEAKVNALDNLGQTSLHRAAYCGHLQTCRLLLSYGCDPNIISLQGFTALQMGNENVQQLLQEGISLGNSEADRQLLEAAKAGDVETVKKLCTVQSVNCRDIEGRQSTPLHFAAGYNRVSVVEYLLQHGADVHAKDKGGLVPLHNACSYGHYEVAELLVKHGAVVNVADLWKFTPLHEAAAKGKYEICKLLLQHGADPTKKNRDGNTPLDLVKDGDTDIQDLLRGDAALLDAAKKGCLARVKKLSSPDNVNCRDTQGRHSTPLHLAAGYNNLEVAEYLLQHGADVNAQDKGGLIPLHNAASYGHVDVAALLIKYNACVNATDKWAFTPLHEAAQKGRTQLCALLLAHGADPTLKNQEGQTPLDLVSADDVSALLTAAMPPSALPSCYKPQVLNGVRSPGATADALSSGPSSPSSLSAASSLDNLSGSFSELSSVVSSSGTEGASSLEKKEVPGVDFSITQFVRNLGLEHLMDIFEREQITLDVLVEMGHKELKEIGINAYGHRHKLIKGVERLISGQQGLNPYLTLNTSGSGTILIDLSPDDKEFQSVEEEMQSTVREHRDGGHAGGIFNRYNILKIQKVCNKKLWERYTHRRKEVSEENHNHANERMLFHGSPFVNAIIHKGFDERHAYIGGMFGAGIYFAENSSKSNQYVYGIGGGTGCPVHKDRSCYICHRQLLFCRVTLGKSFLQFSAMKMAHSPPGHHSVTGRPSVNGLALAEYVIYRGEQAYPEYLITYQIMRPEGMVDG

- in vitro SPA assay TANK-2 pIC50 (TANK-2 enzyme): 7.72
- IC50 [2]: 0.0575 µM
SMILES: COc1cc(OC)nc(CC(C)(C#N)c2ccc3c4c(c(=O)[nH]c3c2)CCCC4)n1 (stereo not shown) [Co. No. 6]
- Assay Tubulin Polymerization score (tubulin): 3 (a compound showing more than 50% inhibition at 5 μM is reported as score 3)
- Cellular assay Eb1 pLAC [1]: 8
